According to article PMC11131246, “Molecular determinants for brain targeting by peptides: a meta-analysis approach with experimental validation” (Fluids and Barriers of the CNS, 2024):
Where two headings read alike, the source gives them in different places. Residues, ends and D or L forms follow the SMILES beside them. No end group written: not given here. *: point of attachment. NODAGA = O=C(O)CN1CCN(CC(=O)O)CCN(C(CCC(=O)*)C(=O)O)CC1

Columns and labels:
[1] = Biodistribution of 67Ga-radiolabeled peptides; design: species or system mouse; settings: female, in vivo, iv, 100 uCi, total radioactivity, mean ± SD, n = 3; for tissue uptake at 1 h / tissue uptake at 2 min: CD1, mouse, i.v. tail vein; for tissue uptake at 2 min: 2 min post injection
Description: All animal experiments were performed in compliance with national and EU legislation for good practices on laboratory animal science. The animals were housed in a temperature and humidity-controlled environment with a 12 h light/12 h dark schedule. Biodistribution of radiolabeled peptides was performed on 7 weeks old CD1 female mice.
Animals were intravenously injected into the tail vein with 100 µL of a 25 µM saline solution of the ^67Ga-peptide with a radioactivity around 100 µCi. The mice were euthanized by cervical dislocation at 2 min and 1 h after injection. The dose administered and the radioactivity in the euthanized animals was measured using a dose calibrator (Carpintec CRC-15W, Ramsey, USA). The difference between the radioactivity in the injected and the euthanized animals was assumed to be due to excretion. Brain and tissues of interest without previous perfusion were dissected, washed, and weighed, and their radioactivity was measured using a γ counter (Hidex AMG, Hidex, Turku, Finland). The uptake in the brain and tissues of interest was calculated and expressed as a percentage of injected radioactivity dose per gram of tissue (% ID/g).

[2] = Analytical RP-HPLC retention time (used as indication of hydrophobicity); type: physicochemical; settings: separate analytical RP-HPLC coupled to a γ-detector; 67Ga-NODA-GA labelled peptides
[3] = Cytotoxicity, CellTiter-Blue cell viability assay; type: cell-based; settings: human
Description: (§1) Peptide cytotoxicity was determined using the CellTiter-Blue® cell viability assay, following a described protocol. Briefly, all cell lines were carefully harvested with trypsin–EDTA and seeded 10.000–20.000 cells/100 μL into 96-well clear flat-bottomed polystyrene plates (Corning, USA) for 24 h. After medium removal, cells were washed twice with 1X PBS, and 100 µL of previously diluted peptides (range from 0.05–100.0 µM) in the respective medium were added to cells. Then, after 24 h, cells were washed twice with 1X PBS and 20 µL of CellTiter-Blue® Reagent (diluted in 100 µL of medium) was added to each well and incubated for 3 h in culturing conditions. The fluorescence intensity was measured using Varioskan™ LUX multimode microplate reader.
(§2) IC50 values were determined using GraphPad Prism 7.0 software using a log(inhibitor) versus normalized response. Experiments were performed in triplicates on different days using three independently grown cell cultures.

[4] = Cytotoxicity, CellTiter-Blue cell viability assay; type: cell-based; settings: human; remark: listed apart in the source
Description: as §1, §2

[5] = Cytotoxicity, CellTiter-Blue cell viability assay; type: cell-based; settings: human; remark: listed apart in the source
Description: as §1, §2

[6] = Cytotoxicity, CellTiter-Blue cell viability assay; type: cell-based; settings: human; remark: listed apart in the source
Description: as §1, §2

[7] = Cytotoxicity, CellTiter-Blue cell viability assay; type: cell-based; settings: human; remark: listed apart in the source
Description: as §1, §2

[8] = system: HBEC-5i cells; experiment: Translocation across in vitro BBB model (HBEC-5i monolayer, transwell); type: in vitro ADME, human; settings: HBEC-5i monolayer on AF-coated PET transwell inserts (1.0 µm pores), 8 days, CF-peptide 5.0 µM in DMEM:F12 without phenol red added to apical side, 24 h, fluorescence, plate reader, mean ± SD, triplicates of three independent experiments
Description: Throughout 8 days, medium was changed every other day. On the day of the experiment, cells were washed twice with 1X PBS (137.0 mM NaCl, 2.7 mM KCl, 10.0 mM Na2HPO4, and 1.8 mM KH2PO4), and once with DMEM:F12 without phenol red. Then, CF-peptides (5.0 μM, in DMEM:F12 without phenol red) were added to the apical side of the in vitro BBB model and incubated for 24 h. Finally, samples from the apical and basolateral side were collected and fluorescence intensity analyzed using a Varioskan^TM LUX multimode microplate reader (Thermo Fisher, Spain). […] Experiments were performed in triplicates on different days using three independently grown cell cultures. Seeking experimental support for our hypothesis, we have synthesized and tested in vitro the activity of ten peptides (Table 1), selected among the 14 BBBpS entries by their lowest S score in an OLS ranking.

[9] = read-out: Cytotoxicity IC50 HBEC-5i
[10] = CellTiter-Blue, peptides 0.05–100.0 µM, 24 h, triplicates, three independent cultures, read-out: Cytotoxicity IC50 HeLa
[11] = CellTiter-Blue, peptides 0.05–100.0 µM, 24 h, triplicates, three independent cultures, read-out: Cytotoxicity IC50 Hs68
[12] = CellTiter-Blue, peptides 0.05–100.0 µM, 24 h, triplicates, three independent cultures
[13] = CellTiter-Blue, peptides 0.05–100.0 µM, 24 h, triplicates, three independent cultures, read-out: Cytotoxicity IC50 HEK-293

## CC[C@H](C)[C@H](NC(=O)CNC(=O)[C@H](CCCNC(=N)N)NC(=O)[C@H](Cc1ccc(O)cc1)NC(=O)[C@H](CS)NC(=O)[C@@H](NC(=O)[C@H](CCCNC(=N)N)NC(=O)[C@H](Cc1ccccc1)NC(=O)[C@H](CS)NC(=O)[C@H](Cc1c[nH]c2ccccc12)NC(=O)[C@H](CCCCN)NC(=O)CCC(C(=O)O)N1CCN(CC(=O)O)CCN(CC(=O)O)CC1)C(C)C)C(=O)N[C@@H](CS)C(=O)N[C@@H](Cc1ccc(O)cc1)C(=O)N[C@@H](CCCNC(=N)N)C(=O)N[C@@H](CCCNC(=N)N)C(=O)N[C@@H](CS)C(=O)N[C@@H](CCCNC(=N)N)C(N)=O (stereo partly shown) [67Ga-non-BBBpS_2, metal not drawn] ({NODAGA}-KWCFRVCYRGICYRRCR-NH2)
[1]; blood, 1 h post injection, CD1 female mice, 100 µL of 25 µM 67Ga-peptide, γ counter, read-out: Tissue distribution, Blood
  tissue uptake at 1 h: 0.9 ± 0.6 %ID/g
[1]; bone, CD1 mice, read-out: Tissue distribution, Bone
  tissue uptake at 2 min: 3.7 ± 0.5 %ID/g
[1]; bone, 1 h post injection, CD1 mice, read-out: Tissue distribution, Bone
  tissue uptake at 1 h: 1.6 ± 0.1 %ID/g
[1]; brain without perfusion, 1 h post injection, CD1 female mice, γ counter, read-out: Tissue distribution, Brain (brain uptake)
  tissue uptake at 1 h: 0.13 ± 0.03 %ID/g
[1]; heart, CD1 mice, read-out: Tissue distribution, Heart
  tissue uptake at 2 min: 6 ± 0.8 %ID/g
[1]; heart, 1 h post injection, CD1 mice, read-out: Tissue distribution, Heart
  tissue uptake at 1 h: 1.7 ± 0.1 %ID/g
[1]; intestine, CD1 mice, read-out: Tissue distribution, Intestine
  tissue uptake at 2 min: 2.7 ± 0.7 %ID/g
[1]; intestine, 1 h post injection, CD1 mice, read-out: Tissue distribution, Intestine
  tissue uptake at 1 h: 1.6 ± 0.5 %ID/g
[1]; kidney, CD1 mice, read-out: Tissue distribution, Kidney
  tissue uptake at 2 min: 19.9 ± 0.4 %ID/g
[1]; kidney, 1 h post injection, CD1 mice, read-out: Tissue distribution, Kidney
  tissue uptake at 1 h: 5.4 ± 0.8 %ID/g
[1]; liver, CD1 mice, read-out: Tissue distribution, Liver
  tissue uptake at 2 min: 19.8 ± 0.7 %ID/g
[1]; liver, 1 h post injection, CD1 mice, read-out: Tissue distribution, Liver
  tissue uptake at 1 h: 22.8 ± 10.1 %ID/g
[1]; lung, CD1 mice, read-out: Tissue distribution, Lung
  tissue uptake at 2 min: 7.6 ± 1.5 %ID/g
[1]; lung, 1 h post injection, CD1 mice, read-out: Tissue distribution, Lung
  tissue uptake at 1 h: 2.4 ± 0.7 %ID/g
[1]; muscle, CD1 mice, read-out: Tissue distribution, Muscle
  tissue uptake at 2 min: 1.8 ± 0.5 %ID/g
[1]; muscle, 1 h post injection, CD1 mice, read-out: Tissue distribution, Muscle
  tissue uptake at 1 h: 1.2 ± 0.4 %ID/g
[1]; spleen, CD1 mice, read-out: Tissue distribution, Spleen
  tissue uptake at 2 min: 5.6 ± 0.4 %ID/g
[1]; spleen, 1 h post injection, CD1 mice, read-out: Tissue distribution, Spleen
  tissue uptake at 1 h: 3.7 ± 1.8 %ID/g
[1]; stomach, CD1 mice, read-out: Tissue distribution, Stomach
  tissue uptake at 2 min: 2.1 ± 0.6 %ID/g
[1]; stomach, 1 h post injection, CD1 mice, read-out: Tissue distribution, Stomach
  tissue uptake at 1 h: 1.7 ± 0.6 %ID/g
[1]; mouse, 1 h post injection, difference between radioactivity injected and in the euthanized animal, CD1 mice
  excretion (% injected dose): 13.5 ± 5.1 %ID
[2]
  HPLC tR: 12.99 min

## CSCC[C@H](NC(=O)[C@H](CC(C)C)NC(=O)CNC(=O)[C@H](Cc1ccccc1)NC(=O)[C@H](Cc1ccccc1)NC(=O)[C@H](CCC(N)=O)NC(=O)[C@H](CCC(N)=O)NC(=O)[C@@H]1CCCN1C(=O)[C@H](CCCCN)NC(=O)[C@@H]1CCCN1C(=O)[C@@H](N)CCCN=C(N)N)C(N)=O [BBBpS_10]
[3]
  IC50 at 24 h: > 100 µM
[4]
  IC50 at 24 h: > 100 µM
[5]
  IC50 at 24 h: > 100 µM
[6]
  IC50 at 24 h: > 100 µM
[7]
  IC50 at 24 h: > 100 µM

## AGILKRW [PepH3, well-tested BBBpS standard, reference compound]
[8]
  Translocation (%) HBEC-5i: 54.0 ± 2.2%

## APWHLSSQYSRT-NH2 [BBBpS_4]
[3]
  IC50 at 24 h: > 100 µM
[4]
  IC50 at 24 h: > 100 µM
[5]
  IC50 at 24 h: > 100 µM
[6]
  IC50 at 24 h: > 100 µM
[7]
  IC50 at 24 h: > 100 µM

## EEGRLYMRYYSPTTRRYG-NH2 [BBBpS_3]
[8]
  Translocation (%) HBEC-5i: 35.7 ± 3.6%
[3]; [9]
  IC50 at 24 h: > 100 µM
[4]; [10]
  IC50 at 24 h: > 100 µM
[5]; [11]
  IC50 at 24 h: > 100 µM
[6]; [12]
  IC50 at 24 h: > 100 µM
[7]; [13]
  IC50 at 24 h: > 100 µM

## HIQLSPFSQSWR-NH2 [BBBpS_5]
[3]
  IC50 at 24 h: > 100 µM
[4]
  IC50 at 24 h: > 100 µM
[5]
  IC50 at 24 h: > 100 µM
[6]
  IC50 at 24 h: > 100 µM
[7]
  IC50 at 24 h: > 100 µM

## KKKKQPPKPKKPKTQEKKKKQPPKPKR-NH2 [non-BBBpS_1]
[8]
  Translocation (%) HBEC-5i: 20.0 ± 3.5%
[3]; [9]
  IC50 at 24 h: > 100 µM
[4]; [10]
  IC50 at 24 h: > 100 µM
[5]; [11]
  IC50 at 24 h: > 100 µM
[6]; [12]
  IC50 at 24 h: > 100 µM
[7]; [13]
  IC50 at 24 h: > 100 µM

## KYKGAIIGNIK-NH2 [BBBpS_1]
[3]
  IC50 at 24 h: > 100 µM
[4]
  IC50 at 24 h: > 100 µM
[5]
  IC50 at 24 h: > 100 µM
[6]
  IC50 at 24 h: > 100 µM
[7]
  IC50 at 24 h: > 100 µM

## KYRSGAITIGY-NH2 [BBBpS_2]
[3]
  IC50 at 24 h: > 100 µM
[4]
  IC50 at 24 h: > 100 µM
[5]
  IC50 at 24 h: > 100 µM
[6]
  IC50 at 24 h: > 100 µM
[7]
  IC50 at 24 h: > 100 µM

## LKTLTETLKELTKTLTEL-NH2 [BBBpS_7]
[3]
  IC50 at 24 h: > 100 µM
[4]
  IC50 at 24 h: > 100 µM
[5]
  IC50 at 24 h: > 100 µM
[6]
  IC50 at 24 h: > 100 µM
[7]
  IC50 at 24 h: > 100 µM

## NRPDSAQFWLHH-NH2 [BBBpS_9]
[3]
  IC50 at 24 h: > 100 µM
[4]
  IC50 at 24 h: > 100 µM
[5]
  IC50 at 24 h: > 100 µM
[6]
  IC50 at 24 h: > 100 µM
[7]
  IC50 at 24 h: > 100 µM

## YDEEGGGE-NH2 [non-BBBpS_3]
[3]
  IC50 at 24 h: > 100 µM
[4]
  IC50 at 24 h: > 100 µM
[5]
  IC50 at 24 h: > 100 µM
[6]
  IC50 at 24 h: > 100 µM
[7]
  IC50 at 24 h: > 100 µM

## YKEATSTFTNITYRGT-NH2 [BBBpS_8]
[3]
  IC50 at 24 h: > 100 µM
[4]
  IC50 at 24 h: > 100 µM
[5]
  IC50 at 24 h: > 100 µM
[6]
  IC50 at 24 h: > 100 µM
[7]
  IC50 at 24 h: > 100 µM

## YTQDFNKFHTFPQTAIGVGAP-NH2 [BBBpS_6]
[3]
  IC50 at 24 h: > 100 µM
[4]
  IC50 at 24 h: > 100 µM
[5]
  IC50 at 24 h: > 100 µM
[6]
  IC50 at 24 h: > 100 µM
[7]
  IC50 at 24 h: > 100 µM
